Test [1] relates to Mus musculus. Put plainly: Anti-hyperouricemic activity in uric acid-induced hyperuricemic Kunming mouse model assessed as decrease in serum uric acid level at 4 mg/kg, IG pre-administered with uric acid for 30 mins followed by compound treatment and measured after 2 hrs by phosphotungstic acid method. Format: functional, organism-based.
In test [2] the target is Xanthine dehydrogenase/oxidase (Homo sapiens, UniProt P47989). Put plainly: Inhibition of XOD (unknown origin) using xanthine as substrate assessed as inhibition of uric acid generation at 50 mg/L preincubated for 15 mins followed by xanthine addition and measured by spectrophotometric analysis relative to control.
Test [3] deals with Rattus norvegicus. The test can be described thus: Anti-hyperuricemic activity against potassium oxonate-induced hyperuricemic Sprague-Dawley rat model assessed as serum creatinine level at 1 mg/kg, po pre-administered via gavage twice daily for 5 times followed by potassium oxonate injection for 1 hrs prior to last dose and measured after 3 hrs. Format: functional. The settings on record: time 123 hrs.

Test [4] relates to Rattus norvegicus. The test can be described thus: Anti-hyperuricemic activity against potassium oxonate-induced hyperuricemic Sprague-Dawley rat model assessed as clearance of urate measured per body surface area of 0.0311 m2 at 1 mg/kg, po pre-administered via gavage twice daily for 5 times followed by potassium oxonate injection for 1 hrs prior to last dose and measured after 3 hrs. Type of test: functional. To be noted: time 123 hrs.

In test [5] the test system is Rattus norvegicus. The test can be described thus: Anti-hyperuricemic activity against potassium oxonate-induced hyperuricemic Sprague-Dawley rat model assessed as serum urea nitrogen level at 1 mg/kg, po pre-administered via gavage twice daily for 5 times followed by potassium oxonate injection for 1 hrs prior to last dose and measured after 3 hrs. Type of test: functional. To be noted: time 123 hrs.

The subject of test [6] is Rattus norvegicus. The test can be described thus: Anti-hyperuricemic activity against potassium oxonate-induced hyperuricemic Sprague-Dawley rat model assessed as urine volume at 2 mg/kg, po pre-administered via gavage twice daily for 5 times followed by potassium oxonate injection for 1 hrs prior to last dose and measured after 3 hrs. Type of test: functional. The settings on record: time 123 hrs.

In test [7] the test system is Rattus norvegicus. The test can be described thus: Anti-hyperuricemic activity against potassium oxonate-induced hyperuricemic Sprague-Dawley rat model assessed as serum creatinine level at 2 mg/kg, po pre-administered via gavage twice daily for 5 times followed by potassium oxonate injection for 1 hrs prior to last dose and measured after 3 hrs. Format: functional. The settings on record: time 123 hrs.

The subject of test [8] is Rattus norvegicus. The test can be described thus: Anti-hyperuricemic activity against potassium oxonate-induced hyperuricemic Sprague-Dawley rat model assessed as excretion of urate per volume of glomerular filtration measured per body surface area of 0.0311 m2 at 2 mg/kg, po pre-administered via gavage twice daily for 5 times followed by potassium oxonate injection for 1 hrs prior to last dose and measured after 3 hrs. Format: functional. To be noted: time 123 hrs.

Test [9] relates to Rattus norvegicus. The test can be described thus: Anti-hyperuricemic activity against potassium oxonate-induced hyperuricemic Sprague-Dawley rat model assessed as urine volume at 1 mg/kg, po pre-administered via gavage twice daily for 5 times followed by potassium oxonate injection for 1 hrs prior to last dose and measured after 3 hrs. To be noted: time 123 hrs. Format: functional.

Test [10] deals with Mus musculus. The test can be described thus: Anti-hyperouricemic activity in uric acid-induced hyperuricemic Kunming mouse model assessed as decrease in serum uric acid level at 2 to 8 mg/kg, IG pre-administered via gavage twice daily for 5 times followed by uric acid injection for 30 mins prior to last dose by phosphotungstic acid method. Format: functional, organism-based. To be noted: dose 2-8 mg/kg, time 5.0 day.

For test [11], the system named is Rattus norvegicus. Put plainly: Anti-hyperuricemic activity against potassium oxonate-induced hyperuricemic Sprague-Dawley rat model assessed as glomerular load of urate measured per body surface area of 0.0311 m2 at 4 mg/kg, po pre-administered via gavage twice daily for 5 times followed by potassium oxonate injection for 1 hrs prior to last dose and measured after 3 hrs. Type of test: functional. To be noted: time 123 hrs.

The structures appear in SMILES notation. Active and inactive are the calls of the source. No cut-off for these calls is given here.

Chain of Xanthine dehydrogenase/oxidase (P47989 whole entry): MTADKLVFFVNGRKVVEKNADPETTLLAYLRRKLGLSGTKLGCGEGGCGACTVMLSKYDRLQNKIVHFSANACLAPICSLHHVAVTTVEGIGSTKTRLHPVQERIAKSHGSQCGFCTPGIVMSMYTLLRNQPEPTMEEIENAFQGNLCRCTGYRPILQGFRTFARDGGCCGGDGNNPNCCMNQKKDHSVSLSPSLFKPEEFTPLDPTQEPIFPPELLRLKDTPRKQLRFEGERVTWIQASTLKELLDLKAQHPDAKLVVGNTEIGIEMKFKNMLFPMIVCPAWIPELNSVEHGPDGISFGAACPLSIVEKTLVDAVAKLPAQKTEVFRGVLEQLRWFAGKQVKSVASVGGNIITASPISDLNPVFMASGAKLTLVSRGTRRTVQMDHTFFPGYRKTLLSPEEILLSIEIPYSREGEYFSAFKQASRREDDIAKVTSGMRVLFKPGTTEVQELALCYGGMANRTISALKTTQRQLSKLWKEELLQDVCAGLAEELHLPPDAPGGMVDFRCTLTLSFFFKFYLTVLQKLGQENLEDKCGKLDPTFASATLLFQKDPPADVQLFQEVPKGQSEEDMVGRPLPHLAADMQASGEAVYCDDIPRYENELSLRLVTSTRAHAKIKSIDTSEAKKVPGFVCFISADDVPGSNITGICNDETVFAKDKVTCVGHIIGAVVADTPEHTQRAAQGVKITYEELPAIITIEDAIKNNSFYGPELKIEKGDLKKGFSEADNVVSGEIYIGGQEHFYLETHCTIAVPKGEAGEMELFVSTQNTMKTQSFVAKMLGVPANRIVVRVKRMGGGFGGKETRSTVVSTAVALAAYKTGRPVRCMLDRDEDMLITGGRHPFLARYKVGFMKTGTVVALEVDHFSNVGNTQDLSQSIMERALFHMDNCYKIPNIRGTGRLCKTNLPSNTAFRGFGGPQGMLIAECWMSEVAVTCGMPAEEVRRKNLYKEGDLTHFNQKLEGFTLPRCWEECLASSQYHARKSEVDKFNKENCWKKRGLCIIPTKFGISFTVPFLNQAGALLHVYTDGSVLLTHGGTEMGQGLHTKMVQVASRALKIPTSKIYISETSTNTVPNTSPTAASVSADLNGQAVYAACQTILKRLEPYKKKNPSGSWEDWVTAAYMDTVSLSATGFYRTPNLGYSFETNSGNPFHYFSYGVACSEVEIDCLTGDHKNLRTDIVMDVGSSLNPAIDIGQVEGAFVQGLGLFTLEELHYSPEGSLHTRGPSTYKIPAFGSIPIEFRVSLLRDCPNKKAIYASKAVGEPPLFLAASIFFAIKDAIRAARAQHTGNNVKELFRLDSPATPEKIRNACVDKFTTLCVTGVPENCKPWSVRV

Take `COc1c(O)cc2oc3cc(O)c(CC=C(C)C)c(O)c3c(=O)c2c1CC=C(C)C` [MANGOSTIN]: the result in the test with Mus musculus [1] and in the test on Mus musculus [10] was Active. Moreover, the inhibition at 50 µg/mL in [2] came to 4.9%. The Activity was 54.4 µmol/L in the test on Rattus norvegicus [3]; 13.6 mL/min in the test with Rattus norvegicus [4]; 10.7 mmol/L in the test on Rattus norvegicus [5]; 5.6 mL in the test on Rattus norvegicus [6]; 55.2 µmol/L with Rattus norvegicus [7]; 5.8 µmol/L with Rattus norvegicus [8]. Besides, the Activity with Rattus norvegicus [9] was 6.8 mL; in the test on Rattus norvegicus [11], 3.7 µmol/min.

What is called inhibition is the share of the control response that was lost under treatment.

Source of the values: ChEMBL document CHEMBL5226379, “Hypouricemic Actions of the Pericarp of Mangosteen in Vitro and in Vivo” (J Nat Prod, 2023).
